From patent publication US20080272062A1, “BROAD SPECTRUM ANTIMICROBIAL PURIFICATION DEVICES AND METHODS FOR PURIFYING FLUIDS” (WATER VISIONS INTERNATIONAL, INC., priority 2006, published 2008)
Counter-ions that a name gives are not always drawn. Like-named read-outs stand apart in the source and are kept apart here. Marks after values point to notes of the source that are not given here.

Columns and labels:
E. coli/bacteria = experiment: Pumped flow through chlorhexidine dihydrate treatment device, Aerobic Plate Count; assay type: cell-based
Procedure: Dechlorinated city of Atlanta tap water was inoculated with a culture of E. coli/bacteria and pumped through a 0.25 inch chlorhexidine dihvdrate treatment device at a rate of 1 to 2 L/min up to 80 L. Bacterial recovery was determined by Aerobic Plate Count and is shown in Table 9.
Accordingly, the reaction of chlorhexidine dihydrate appears to be of a “catalytic” nature. Conversely, typical applications involving soluble chlorhexidine gluconate result in its consumption and approach a second-order reaction. The same is true for most other known antimicrobial agents. Thus, chlorhexidine dehydrate is particularly suitable for use as a purification material.

Dry bulk density = assay type: physicochemical; conditions: packed in 50 ml graduated cylinder, vortex agitated
Procedure: The materials were loosely packed into tared 50 ml graduated cylinders and agitated with a vortex mixer to further pack the materials in the cylinders. The weight of the material was determined and then divided by the volume of material to determine the bulk density. The larger value for the dihydrate is due to the significant amorphous fraction of the material that is not present in the pure chlorhexidine. The amorphous particles are smaller than crystals and fill the voids between crystals allowing for a greater packing density of particles, […]

B. subtilis = experiment: Gravity flow of inoculum through chlorhexidine dihydrate particle bed; assay type: cell-based
Procedure: (§1) Columns having a length of 30.48 cm and diameter of 0.75 in were packed with particle beds comprising chlorhexidine dihydrate having lengths of 1.9 cm, 2.5 cm, and 4.1 cm. A 40 mL mixture of inocculum (comprising 35 million B. subtilis, 91 million E. coli, 130 million R. terrigena, and 100 million A. niger) and water was passed by gravity through the chlorhexidine dihydrate particle bed.

E. coli [1] = experiment: as above; assay type: cell-based
Procedure: as §1

A. niger = experiment: as above; assay type: cell-based
Procedure: as §1

R. terrigena = experiment: as above; assay type: cell-based
Procedure: as §1

[2] = Solubility in solvents (aliquot dried and weighed); assay type: physicochemical; conditions: 3 days
[3] = Temperature dependence of solubility in water; assay type: physicochemical
Procedure: The effect of temperature on the solubility of chlorhexidine dihydrate in water was determined by placing a sample of chlorhexidine dihydrate in a 100 mL round bottom flask with 50 mL of deionized water. The round bottom flask contained a stir bar and was placed in an oil bath on a hot plate. The solution was gradually warmed. Aliquots were taken every 15° C. The aliquot was taken from the solution using of a syringe fitted with a micropore filter (Whatman fiberglass filter GF/D, pore size 2.7). The filter separated the solution from the suspended material. The solution was dried in a weigh boat at 60° C. overnight.

all microorganisms = experiment: Treatment of influent contaminated water stream with particle bed of insoluble chlorhexidine dihydrate; assay type: cell-based
Excerpt: The composition of chlorhexidine dihydrate produced mortality in all microorganisms with a minimum or greater mean 10-log reduction upon treatment of an influent contaminated water stream with a particle bed of insoluble chlorhexidine dihydrate. While it is known that soluble chlorhexidine salts are bactericidal for some microorganisms, the purification materials embodied herein require insoluble antimicrobial agents. Thus, the previously known chlorhexidine salts are unacceptable for use in the purification materials embodied herein.

[4] = Surface energy, contact angle on dip-coated glass slides; assay type: physicochemical; parameters: unit not given here
Procedure: Glass slides were cleaned in hot chromic acid, deionized water and blown dry. Two slides were treated with hexamethyldisilazane to lower their surface energy. Solutions of chlorhexidine dihydrate in chloroform/methanol and chlorhexidine in methylene chloride/methanol were prepared. The slides were coated using a dip-coater with a dipping speed of 2.8 mm/min. […] The untreated slides produced very uniform thin films.

[5] = Solubility in solvents (aliquot dried and weighed); assay type: physicochemical; conditions: for Solubility: 7 days
Procedure: A sample of material was placed in a small vial with a few mL of solvent. The solution was stirred by shaking for several hours and then allowed to sit for a week equilibrating.
A 1 mL aliquot drawn from the solution using an Eppendorf pipette was placed in a weigh boat and dried in an oven. The dried sample was weighed. Measurements of the alcohol and water solvents were taken after three hours of mixing and again after a week. At the three hour measurement, it was necessary to centrifuge the sample in order to separate the solvent solution from the particulate matter.

[6] = Density by suspension in binary solvent system; assay type: physicochemical; conditions: melted glassy chunk, chlorobenzene/carbon tetrachloride
Excerpt: Chlorhexidine and chlorhexidine dihydrate were melted on a glass slide heated on a hot plate. These glassy materials easily fractured into large chunks. One of these chunks from each sample was used to determine the density of the material. Using a binary solvent system consisting of chlorobenzene (density 1.102 g/cc) and carbon tetrachloride (density […]), the chunk of material was suspended. The solution was adjusted until the particle remained hovering in mid solution without floating to the surface or sinking to the bottom. The resulting solution was weighed in a 10 mL volumetric flask and the density was calculated. The procedure was repeated at least 4 times for each sample.

Porosity to water = assay type: physicochemical; conditions: water head 25 cm, cross-sectional area 2.775 cm^2
Procedure: To measure the porosity of the materials to water, samples were placed in a ¾″ inner diameter plastic tube fitted with a plug with a hole in the middle. A wire mesh, on top of the plug, prevented the powder from passing through the plug. Deionized water was passed through the sample until the material was sufficiently packed and a second wire mesh was positioned on top of the sample. Water was added to the tube to a height of 25 centimeters above the plug of material. This height was maintained to plus or minus one cm in order to maintain a constant pressure. The porosity was calculated by calculating the volumetric flow rate (volume/time), multiplying by the cross-sectional area (2.775 cm^2), and dividing by the thickness. Accordingly, the rate should increase proportionally with increases in the cross section and decreases in the thickness.

[7] = cited from earlier work
E. coli [8] = experiment: Gravity flow of inoculum through chlorhexidine base particle bed; assay type: cell-based; conditions: 40 mL, 6.4 million E. coli, 54 minutes
Procedure: A 40 mL mixture of inocculum comprising 6.4 million E. coli and water was passed by gravity flow through a chlorhexidine base particle bed. It took 54 minutes for the fluid to pass through the particle bed.

[9] = bed 2.5 cm, flow time 2.0 minutes
[10] = bed 4.1 cm, flow time 1.5 hours
[11] = Water/Ethanol (50:50, 30.0 dyne/cm)
[12] = Water/Ethanol (70:30, 36.1 dyne/cm)
[13] = Water/Ethanol (90:10, 51.3 dyne/cm)

## N=C(NCCCCCCNC(=N)NC(=N)Nc1ccc(Cl)cc1)NC(=N)Nc1ccc(Cl)cc1.O.O [Chlorhexidine dihydrate, chlorhexidine dihydrate]
E. coli/bacteria; 1 to 2 L/min up to 80 L, 0.25 inch thickness disc
  inactivation of E. coli: 100%
E. coli/bacteria; 20 L run through device, untreated 8.6 × 10^8, 1 to 2 L/min
  Total Aerobic Plate Count: 10 # colonies/mL
E. coli/bacteria; 40 L run through device
  Total Aerobic Plate Count: <10 # colonies/mL
E. coli/bacteria; 60 L run through device
  Total Aerobic Plate Count: <10 # colonies/mL
E. coli/bacteria; 80 L run through device
  Total Aerobic Plate Count: <10 # colonies/mL
Dry bulk density
  Bulk Density: 0.70 g/cc
B. subtilis; bed 1.9 cm, flow time 1.0 hour
  % Reduction: >99.997%
B. subtilis; bed 1.9 cm, inoculum 35 × 10^6, flow time 1.0 hour
  Effluent (1.9 cm): <1000
B. subtilis; [9]
  % Reduction: 99.6%
B. subtilis; bed 2.5 cm, inoculum 35 × 10^6, flow time 2.0 minutes
  Effluent (2.5 cm): 14 × 10^5
B. subtilis; [10]
  % Reduction: >99.997%
B. subtilis; bed 4.1 cm, inoculum 35 × 10^6, flow time 1.5 hours
  Effluent (4.1 cm): <1000
E. coli [1]; bed 1.9 cm, flow time 1.0 hour
  % Reduction: >99.999%
E. coli [1]; bed 1.9 cm, inoculum 91 × 10^6, flow time 1.0 hour
  Effluent (1.9 cm): <1000
E. coli [1]; [9]
  % Reduction: >99.999%
E. coli [1]; bed 2.5 cm, inoculum 91 × 10^6, flow time 2.0 minutes
  Effluent (2.5 cm): <1000
E. coli [1]; [10]
  % Reduction: >99.999%
E. coli [1]; bed 4.1 cm, inoculum 91 × 10^6, flow time 1.5 hours
  Effluent (4.1 cm): <1000
A. niger; bed 1.9 cm, flow time 1.0 hour
  % Reduction: >99.9%
A. niger; bed 1.9 cm, inoculum 100 × 10^6, flow time 1.0 hour
  Effluent (1.9 cm): <1000
A. niger; [9]
  % Reduction: 99.2%
A. niger; bed 2.5 cm, inoculum 100 × 10^6, flow time 2.0 minutes
  Effluent (2.5 cm): 8000
A. niger; [10]
  % Reduction: >99.9%
A. niger; bed 4.1 cm, inoculum 100 × 10^6, flow time 1.5 hours
  Effluent (4.1 cm): <1000
R. terrigena; bed 1.9 cm, flow time 1.0 hour
  % Reduction: >99.999%
R. terrigena; bed 1.9 cm, inoculum 130 × 10^6, flow time 1.0 hour
  Effluent (1.9 cm): <1000
R. terrigena; [9]
  % Reduction: >99.999%
R. terrigena; bed 2.5 cm, inoculum 130 × 10^6, flow time 2.0 minutes
  Effluent (2.5 cm): <1000
R. terrigena; [10]
  % Reduction: >99.999%
R. terrigena; bed 4.1 cm, inoculum 130 × 10^6, flow time 1.5 hours
  Effluent (4.1 cm): <1000
[2]; Ethanol
  Solubility: 1700 µg/mL
[2]; Iso-propanol
  Solubility: 900 µg/mL
[2]; Methanol
  Solubility: 3600 µg/mL
[2]; Water
  Solubility: <500 µg/mL
[3]; 30 ° C.
  Solubility in water: 460 µg/mL
[3]; 45 ° C.
  Solubility in water: 740 µg/mL
[3]; 60 ° C.
  Solubility in water: 780 µg/mL
[3]; 75 ° C.
  Solubility in water: 920 µg/mL
[3]; 90 ° C.
  Solubility in water: 890 µg/mL
[3]; hot and cold water
  Solubility (in words): very limited solubility
All microorganisms
  mean log reduction (mortality in all microorganisms): ≥ 10 log
[4]; Water (72.2 dyne/cm)
  Mean Contact Angle: 7.08
[4]; [11]
  Mean Contact Angle: 0
[4]; [12]
  Mean Contact Angle: 18.44
[4]; [13]
  Mean Contact Angle: 13.08
[5]; Chloroform
  Solubility: 5600 µg/mL
[5]; Ethanol
  Solubility: 600 µg/mL
[5]; Ethyl Acetate
  Solubility: 10000 µg/mL
[5]; Iso-propanol
  Solubility: 400 µg/mL
[5]; MIBK
  Solubility: 21100 µg/mL
[5]; Methanol
  Solubility: 2800 µg/mL
[5]; Methylene Chloride
  Solubility: 5600 µg/mL
[5]; Water
  Solubility: <400 µg/mL
[5]; hot methanol, chloroform, methylene chloride, and ketones
  Solubility (in words): appreciable solubility
[6]
  Density: 1.266 ± .001 g/cc
Porosity to water
  Porosity: 7.55 mL cm^2/min/cm

## [H]/N=C(\N/C(=N/[H])NCCCCCCNC(=N)NC(=N)Nc1ccc(Cl)cc1)Nc1ccc(Cl)cc1 [Chlorhexidine hydrochloride, chlorhexidine hydrochloride]
Dry bulk density
  Bulk Density: 0.15 g/cc

## [H]/N=C(\N/C(=N/[H])NCCCCCCNC(=N)NC(=N)Nc1ccc(Cl)cc1)Nc1ccc(Cl)cc1 [Chlorhexidine, N,N″Bis(4-chlorophenyl)-3,12-diimino-2,4,11,13-tetrazatetradecanediimideamide, reference compound]
[7]; reported by Block, Disinfection, Sterilization, and Preservation, 2001
  Solubility: 0.0008%
[7]; reported by Merck Index
  Solubility: 0.08%
Dry bulk density
  Bulk Density: 0.64 g/cc
[4]; Water (72.2 dyne/cm)
  Mean Contact Angle: 10.28
[4]; [11]
  Mean Contact Angle: 0
[4]; [12]
  Mean Contact Angle: 13.5
[4]; [13]
  Mean Contact Angle: 15.3
E. coli [8]
  reduction in E. coli: greater than 99.999%
[6]
  Density: 1.270 ± .001 g/cc
Porosity to water
  Porosity: 3.60 mL cm^2/min/cm
